Assay results as given in patent US5750552A, “Imidazoline derivative, possible tautomer thereof, and vulnerary including such derivative or tautomer” (Arax Co., Ltd., priority 1995, dated 1998).

Columns and labels:
[1] = tested on: acetic acid-induced gastric ulcer; test: Healing effect on acetic acid-induced gastric ulcer of rat; assay type: in vivo, Donryu rat; details: 25 mg/kg oral two times a day, 10 days
Description: Healing effect on acetic acid-induced gastric ulcer of rat
A male Donryu rat of 7-week age was subjected to abdominal incision to expose the stomach, with pentobarbital used as an anesthesia. Using a metal ring having an inside diameter of 10 mm, 200 μL of glacial acetic acid was applied, for 60 seconds, with a serosa-side of a boundary area between the antrum and the corps. The abdomen of the specimen rat subjected to the glacial acetic acid was closed by an operation, and the rat was then fed in a normal way. The compound prepared in Example 2, that is, 2-(2-dimethylaminobenzylsulfinyl)-5,5-dimethylimidazoline-4-thione was used as the specimen drug. This compound was orally administered to the specimen rat two times a day (at 9:00 a.m. and 5:00 p.m.), each time with a dose of 25 mg/kg, beginning on the day following the day on which the glacial acetic acid was applied to the rat. The oral administration continued for 10 consecutive days, with a total of 20 administrations. On the day following the last day of the administration, the specimen rat was sacrificed by ether, and the ulcer portion of the rat was semi-fixed with formalin. The surface area of the ulcer portion was measured. The healing percent (%) calculated on the basis of the measured surface area was 40.8%.

wound in rat = test: Healing effect on wound in rat; assay type: in vivo, SD rats; details: TABLE 7, 15 days; for Healing days: control 15.1 ± 0.22; for Healing Index: control 188.3 ± 18.2
Description: Healing Effect on wound in rat
Male 7-week SD rats were classified into groups each consisting of 6-7 rats, such that all the groups have substantially the same average weight. The experiment was performed on the rats according to a method of Tsurumi et al. (Oyo Yakuri, Vol. 7, pp833, 1973). Initially, the rats were subjected to an anesthesia with pentobarbital. The hair of the back of each rat was clipped, and the skin was disinfected with 70% ethanol. Then, the skin was lightly pulled and punched off in a direction from the right to the left by means of a punch whose diameter is 10 mm, so as to form two open wounds on portions of the back of the rat which are symmetrical to each other with respect to the center line of the back. The compounds of Examples indicated in the following TABLES 7 and 8 were used as specimen drugs, and orally administered once a day to each of the rats with doses indicated in the TABLES 7 and 8. The oral administration continued for 15 consecutive days, beginning from the first day when the wounds were formed on the back of each rat.
To clarify the healing effect on the wounds, an Healing Index and healing days were obtained in the following manner. Initially, the lengths of a major axis and a minor axis of each wound formed on the back were measured using calipers. On the basis of the measured length values, the area of each wound was calculated as the area of an ellipse. The Healing Index was obtained according to a method of Nakano et al. (Oyo Yakuri, Vol. 47, pp29, 1994). Described more specifically, a ratio of area of each wound was chronologically represented in a graph, and an area of the lower part of a curve in the graph during a period from the fifth day to the fifteenth day after the wounds were formed was obtained as the Healing Index. […] The healing days were obtained as the number of the days that were required for the wounds to be completely covered with regenerated epidermises. As for the wound that was healed in more than 15 days, the healing days were obtained as 16 days.

[2] = tested on: indomethacin-induced gastric ulcer; test: Inhibitory effect on indomethacin-induced gastric ulcer; assay type: in vivo, SD rats; details: 30 mg/kg oral, 30 min before indomethacin
Description: Inhibitory effect on indomethacin-induced gastric ulcer
Male SD rats of 7-week age were fasted for 24 hours, with a fast of water beginning in early morning of the day when the experiments were performed. The rats were classified into groups each consisting of eight rats, such that all the groups have substantially the same average weight. Before giving indomethacine to the rats, the compounds of the Examples indicated in TABLE 5 were orally administered as specimen drugs to the rats, with a dose of 30 mg/kg. Thirty minutes later, indomethacin was orally administered to each specimen rat, with a dose of 25 mg/kg (1 mL/rat). Seven hours later, the specimen rats were sacrificed by ether, and the gastric mucosa of each rat was semi-fixed with 2% formalin. The longitudinal length of the damaged area of gastric mucosa was measured, and the anti-ulcer percent values of the individual specimen drugs were calculated on the basis of the sum of the measured length values of each group of specimen rats, in the same manner as in EXAMPLE 19.

ddY mice = test: Single-dose toxicity study; assay type: in vivo; details: oral, male ddY mice, two weeks
[3] = Single-dose toxicity study; assay type: in vivo; details: mouse, in vivo, oral, male ddY mice, two weeks
[4] = tested on: hydrochloric acid-ethanol-induced gastric ulcer; test: Inhibitory effect on hydrochloric acid-ethanol-induced gastric ulcer; assay type: in vivo, SD rats; details: 30 mg/kg oral, 30 min before hydrochloric acid-ethanol
Description: Inhibitory effect on hydrochloric acid-ethanol-induced gastric ulcer
Male SD rats of 7-week age were fasted for 24 hours, with a fast of water beginning in early morning of the day when the experiments were performed. The rats were classified into groups each consisting of five rats, such that all the groups have substantially the same average weight. Before giving hydrochloric acid-ethanol to the rats, the compounds of the Examples indicated in TABLE 4 were orally administered as specimen drugs to the rats, with a dose of 30 mg/kg. Thirty minutes later, 1 mL of 98% ethanol containing 200 mM of hydrochloric acid was orally administered to each specimen rat. One hour later, the specimen rats were sacrificed by ether, and the gastric mucosa of each rat was semi-fixed with 2% formalin. The longitudinal length of the damaged area of the gastric mucosa was measured, and the anti-ulcer percent values of the individual specimen drugs were calculated on the basis of the sum of the measured length values of each group of the specimen rats, in the same manner as in Example 19.

[5] = tested on: water-immersion restraint stress-induced gastric ulcer; test: Inhibitory effect on water-immersion restraint stress-induced gastric ulcer; assay type: in vivo, SD rats; details: 10 mg/kg oral, 30 min before stress
Description: Inhibitory effect on water-immersion restraint stress-induced gastric ulcer
Male 7-week SD rats were fasted for 24 hours, with a fast of water beginning in early morning of the day when the experiments were performed. The rats were classified into groups each consisting of five rats, such that all the groups have substantially the same average weight. Thirty minutes before giving a stress to the rats, the compounds of the Examples indicated in TABLE 3 were orally administered as specimen drugs to the rats, with a dose of 10 mg/kg. The rats were then kept in stress cages, and were given a stress by immersing the cages in a water bath kept at a substantially constant temperature of 23°±1° C., such that the water level was at the height of the xiphoid of the rats. Seven hours later, the specimen rats were sacrificed by ether, and the gastric mucosa of each rat was semi-fixed with 2% formaline. The longitudinal length of the damaged area of the gastric mucosa was measured. A sum of the measured length values of the rats of each group was calculated as an ulcer index. An anti-ulcer or ulcer inhibitory percent (%) was calculated as {1-(ulcer index of each group of specimen rats)/(ulcer index of non-specimen group)}×100.

[6] = tested on: gastric acid secretion in a pylorus ligated rat; test: Inhibitory effect on the gastric acid secretion in a pylorus ligated rat; assay type: in vivo, SD rats; details: 10 mg/kg intraduodenal; 4 hours
Description: Inhibitory effect on the gastric acid secretion in a pylorus ligated rat Male 7-week SD rats were fasted for 24 hours, with a fast of water beginning in early morning of the day when the experiments were performed. The rats were classified into groups each consisting of five rats, such that all the groups have substantially the same average weight. The experiments were performed according to a method of Shay et. al. (Shay, H. et. al., Gastroenterology, Vol. 5, pp43, 1945). Described more specifically, each of the rats was subjected to a light anesthesia by ether, and the hair of the abdomen of each rat was clipped. Then, the abdomen was incised over a length of 1.5 cm along the center line downwards from a portion 1 cm below the xiphoid of the rat, and the stomach was taken out of the body. A portion connecting the pylorus and the duodenum was ligated by suturing thread. […] After the administration, the skin of the abdominal muscle and abdomen was sutured. The rats were kept in cages and fasted for 4 hours with a fast of water. Then, the rats were sacrificed by ether, and the stomach of each rat was removed. The gastric content was obtained from a small hole formed through the stomach of each rat and was collected in a test tube. […] An amount of supernatant was measured as a volume of gastric acid, and a total acidity of the gastric acid was also measured. A volume of gastric acid inhibitory percent (%) and a total acidity inhibitory percent (%) were calculated in the same manner as the ulcer inhibitory percent was calculated. The total acidity was obtained as a product of the amount of gastric acid secreted for 4 hours and the acidity per 1 mL of the gastric acid which was subjected to neutralization titration by an aqueous solution of 0.01N sodium hydroxide.

| Compound | healing percent (ulcer surface area) [1] | Healing days (wound in rat; 50 mg/kg oral once a day) | Healing Index (wound in rat; 50 mg/kg oral once a day) | Healing days (wound in rat; 100 mg/kg oral once a day) | Healing Index (wound in rat; 100 mg/kg oral once a day) | Inhibitory Percent (ulcer) [2] | LD50 95% confidence limits (ddY mice) | LD50 at 336 h [3] | Inhibitory Percent (ulcer) [4] | Inhibitory Percent (ulcer) [5] | Total acidity Inhibitory percent [6] | Volume of Gastric acid Inhibitory percent [6] |
| --- | --- | --- | --- | --- | --- | --- | --- | --- | --- | --- | --- | --- |
| CN(C)c1ccccc1C[S+]([O-])C1=NC(C)(C)C(=S)N1 (stereo not drawn) [Example 2, 2-(2-dimethylaminobenzylsulfinyl)-5,5-dimethylimidazolin-4-thione] | 40.8% | 13.8 ± 0.39 days | 153.0 ± 13.2 | 14.6 ± 0.44 days | 146.7 ± 12.4 | 100% | 791 to 1138 mg/kg | 952 mg/kg |  |  |  |  |
| CC1(C)N=C([S+]([O-])Cc2cccc3cccnc23)NC1=S (stereo not drawn) [Example 4, 2-(8-quinolinylmethylsulfinyl)-5,5-dimethylimidazolin-4-thione] |  |  |  |  |  |  |  |  | 90.3% |  |  |  |
| CCN(C)c1ccccc1C[S+]([O-])C1=NC(C)(C)C(=S)N1 (stereo not drawn) [Example 15, 2-(2-N-ethyl-N-methylaminobenzylsulfinyl)-5,5-dimethylimidazolin-4-thione] |  |  |  |  |  | 99.2% |  |  | 97.4% | 99.9% | 91.3% | 60.1% |
| CCC1(C)N=C([S+]([O-])Cc2ccccc2N(C)C)NC1=S (stereo not drawn) [Example 16, 2-(2-dimethylaminobenzylsulfinyl)-5-ethyl-5-methylimidazolin-4-thione] |  |  |  |  |  | 97.2% |  |  | 98.6% |  | 77.4% | 41.6% |
